These results are taken from publication PMC7913927, “Leishmanicidal Activity of Betulin Derivatives in Leishmania amazonensis; Effect on Plasma and Mitochondrial Membrane Potential, and Macrophage Nitric Oxide and Superoxide Production” (Microorganisms, 2021).

Like-named read-outs stand apart in the source and are kept apart here. Bounds are passed on as bounds.

Series [1] relates to L. (L.) amazonensis LTB0016 promastigotes. The series can be described thus: Promastigote in vitro susceptibility (Alamar Blue/resazurin), reference strain. The format is cell-based, Leishmania amazonensis. The note with it: for inhibition at 50 µM / growth inhibition: LTB0016, 50 µM; for inhibition at 50 µM: read-out: growth inhibition. The procedure:
The fluorometric method of Alamar Blue® (resazurin) was used. Promastigotes grown in biphasic agar-blood medium, at the exponential phase of growth, were seeded in flat-bottom 96-well culture plates, at a cell density of 1 × 10^6 parasites mL^−1 (200,000 parasites/well), in 180 µL of RPMIc without phenol red. Subsequently, either a sole concentration (50 µM), or increasing concentrations of compounds or drugs were applied, according to each treatment group, in volumes of 2 µL. Plates were kept at 26 °C, in a humid chamber, for 72 h. […] Live parasites are metabolically active and capable of reducing non-fluorescent resazurin (blue) to fluorescent resorufin (red). Fluorescence intensity is directly proportional to the number of viable cells. […] At least two independent experiments were performed in duplicate. The effect of trivalent antimonial [SbIII, potassium antimonyl tartrate trihydrate, Sigma-Aldrich, (St. Louis, MO, USA)] was included as positive control of the assay.

Series [2] in a line: Cytotoxicity (Alamar Blue) in macrophages. The format is cell-based, murine. Particulars: mouse, J774.1 macrophages. The method, then:
(§1) In flat-bottom 96-well culture plates, J774.1 macrophages were seeded at a cell density of 5 × 10^4 mL^−1 (10,000 macrophages/well) in 200 µL of RPMIc. After 24 h at 37 °C, 5% CO2, medium was replaced by 180 µL of RPMIc, without phenol red, and increasing concentrations of test compounds in 2-µL volumes. […] At least two independent experiments were performed in duplicate. Based on the inhibition of cell growth caused by the tested compounds, the percentage of growth inhibition compared to untreated cells was calculated. […] Selectivity indices (SI) were calculated, dividing the macrophage CC50 by the parasites GI50 (SI = CC50/GI50).

For series [3], the system named is L. (L.) amazonensis VE2000MM promastigotes. The experiment in a line: Promastigote in vitro susceptibility (Alamar Blue/resazurin), patient isolate VE2000MM. The format is cell-based, Leishmania amazonensis. The method, then: (§2) The fluorometric method of Alamar Blue® (resazurin) was used. Promastigotes grown in biphasic agar-blood medium, at the exponential phase of growth, were seeded in flat-bottom 96-well culture plates, at a cell density of 1 × 10^6 parasites mL^−1 (200,000 parasites/well), in 180 µL of RPMIc without phenol red. Subsequently, either a sole concentration (50 µM), or increasing concentrations of compounds or drugs were applied, according to each treatment group, in volumes of 2 µL. Plates were kept at 26 °C, in a humid chamber, for 72 h. Resazurin was then added (20 µL of 10% v/v), to reach a final concentration of 250 µM and plates were incubated for an additional 4 h. Live parasites are metabolically active and capable of reducing non-fluorescent resazurin (blue) to fluorescent resorufin (red). Fluorescence intensity is directly proportional to the number of viable cells. The fluorometric reading was carried out using the appropriate wavelengths (ex: 540 nm/em: 580 nm) in a spectrofluorometer Victor^2 Wallac (Perkin Elmer, Turku, Finland). At least two independent experiments were performed in duplicate. The effect of trivalent antimonial [SbIII, potassium antimonyl tartrate trihydrate, Sigma-Aldrich, (St. Louis, MO, USA)] was included as positive control of the assay.

For another series, the system named is J774.1 macrophages. The experiment in a line: Cytotoxicity (Alamar Blue) in macrophages. The format is cell-based, murine. The note with it: 72 h. The method, then: as §1
Series [4] relates to L. (V.) braziliensis promastigotes, reference strain MHOM/BR/LTB300. Particulars: cited from earlier work; for active concentration in L. (L.) braziliensis: reference strain MHOM/BR/LTB300.
Series [5] deals with L. (L.) amazonensis VE98MR promastigotes. The series can be described thus: Promastigote in vitro susceptibility (Alamar Blue/resazurin), patient isolate VE98MR. It is filed as cell-based, Leishmania amazonensis. The procedure:
as §2

In series [6] the test system is L. (L.) braziliensis MHOM/BR/LTB300. The arrangement: method as in PMID 25240731. Particulars: cited from earlier work.
Series [7] has as its system L. (L.) amazonensis LTB0016, VE98MR and VE2000MM promastigotes. The series can be described thus: Plasma membrane potential (ΔΨp), bisoxonol fluorescence. The format is cell-based, Leishmania amazonensis. The note with it: VE2000MM promastigotes; valinomycin 1 µM. The method, then:
To evaluate the plasma membrane potential (ΔΨp), the fluorescent compound, bisoxonol, bis[1,3-diethylthiobarbituric acid] trimethine oxonol, was used, as well as a method optimized by Padrón-Nieves et al.. Initially, calibration curves for each strain, using increasing concentrations of KCl (0.5 to 75 mM), were performed in the late log growth phase Leishmania promastigotes in the presence of the potassium ionophore valinomycin. By this procedure, fluorescence values could be transformed into millivolts (mV), applying the Nernst equation, ΔΨp = −59.4 log(120/[KCl]). […] After 10 min of incubation in the dark, fluorescence was measured in a Victor^2 Wallac spectrofluorometer (Perkin Elmer, Turku, Finland), using the appropriate wavelengths (ex: 540 nm/em: 580 nm). […] Once the corresponding calibration curve for each strain was obtained, the effect of compounds on the ΔΨp was evaluated. […] After 10 min of incubation in the dark, fluorescence was measured, using the appropriate wavelengths (ex: 540 nm/em: 580 nm). […] To transform the fluorescence values in millivolts (mV), calibration curves were prepared using increasing concentrations of KCl (0.5, 1.15, 2.5, 5, 10, 20, 40, and 75 mM). […]

The mark [8] stands for this setting: J774.1 CC50 / LTB0016 promastigote GI50.
The mark [9] stands for this setting: Leishmania amazonensis, LTB0016 promastigotes, 72 h, read-out: Promastigote (GI50) mean.
[10] abbreviates: LTB0016 promastigotes, 72 h, read-out: Promastigote (GI50) mean.

Turning to `C=C(C)[C@@H]1CC[C@]2(CO)CC[C@]3(C)[C@H](CC[C@@H]4[C@@]5(C)CC[C@H](O)C(C)(C)[C@@H]5CC[C@]43C)[C@@H]12` [Compound 1, betulin], the “SI CC50/GI50” value in series [1] (setting [8]) is recorded as 1.30. In addition, in series [1] (Leishmania amazonensis), the inhibition at 50 µM was at least 75%. Also, the GI50 in series [1] (setting [9]) stood at 19.3 µM. In addition, in series [2], the CC50 at 72 h stood at 25.1 µM.
For `N=C(N)c1ccc(OCCCCCOc2ccc(C(=N)N)cc2)cc1` [PNT, reference compound], the concentration for 50% growth inhibition (GI50) in series [1] (setting [10]) was 0.93 µM.
As to `CCCCCCCCCCCCCCCCOP(=O)([O-])OCC[N+](C)(C)C` [MLF, miltefosine, reference compound], the 50% growth inhibitory concentration (GI50) was found to be 4.17 µM in series [1] (setting [9]) and 5.13 µM in series [3] (Leishmania amazonensis, read-out: GI50 promastigotes VE2000MM).
In turn, `C=C(C)[C@@H]1CC[C@]2(C=O)CC[C@]3(C)[C@H](CC[C@@H]4[C@@]5(C)CC[C@H](O)C(C)(C)[C@@H]5CC[C@]43C)[C@@H]12` [Compound 12, betulinic aldehyde] yielded a growth inhibition in series [1] of 67%.
Take `C=C(C)[C@@H]1CC[C@]2(C(=O)O)CC[C@]3(C)[C@H](CC[C@@H]4[C@@]5(C)CC[C@H](O)C(C)(C)[C@@H]5CC[C@]43C)[C@@H]12` [Compound 11, betulinic acid]: in series [1] (Leishmania amazonensis), the inhibition at 50 µM came out at 44%.
In the case of `C=C(C)C1CCC2(C=NO)CCC3(C)C(CCC4C5(C)CCC(O)C(C)(C)C5CCC43C)C12` (stereo not shown) [Compound 17], the “SI CC50/GI50” value in series [1] (setting [8]) is 14.23. Moreover, the growth inhibition result in series [1] was “at least 75%”. Moreover, the GI50 in series [1] (setting [10]) stood at 1.35 µM. The compound further returned a CC50 with J774.1 macrophages of 19.3 µM. Moreover, the “active concentration in L. (L.) braziliensis” value (“active concentration” below) in series [4] was “less than 10 µM”.
For `O=NO` [NaNO2, sodium nitrite], the 50% growth inhibitory concentration (GI50) in series [1] (data not detailed in the manuscript, parasite stage not stated, read-out: GI50 against NaNO2, LTB0016) worked out at 0.91 µM; in series [5] (data not detailed in the manuscript, parasite stage not stated, read-out: GI50 against NaNO2, VE98MR) it was 3.28 µM; in series [3] (data not detailed in the manuscript, parasite stage not stated, read-out: GI50 against NaNO2, VE2000MM), 4.79 µM.
Take `C=C(C)[C@@H]1CC[C@]2(C(=O)O)CC[C@]3(C)[C@H](CC[C@@H]4[C@@]5(C)CCC(=O)C(C)(C)[C@@H]5CC[C@]43C)[C@@H]12` [Compound 14]: in series [1], the growth inhibition entry is listed as “did not show enough anti-leishmanial activity”. Also, the “active concentration” value in series [4] is “less than 10 µM”.
Take “3,28-diformylbetulin triazolodione [Compound 26]”: in series [1], the “SI CC50/GI50” value was determined as 5.68 and the growth inhibition result is “at least 75%”. Moreover, the 50% growth inhibitory concentration (GI50) in series [1] (setting [10]) worked out at 3.85 µM. In the series on J774.1 macrophages, this compound gave a CC50 of 21.9 µM. Also, in series [4], the concentration for 50% growth inhibition (GI50) is below 1 µM and the “active concentration” value is listed as “less than 10 µM”. The “inhibition of parasite migration” value in series [6] is “inhibited parasite migration at nano and picomolar concentrations”.
As to “potassium antimonyl tartrate trihydrate [SbIII]”, the GI50 in series [1] (setting [10]) came out at 5.51 µM; in series [5] (promastigotes, read-out: GI50 promastigotes VE98MR) it was 9.08 µM; in series [3] (promastigotes, read-out: GI50 promastigotes VE2000MM), 13.6 µM.
As to `[K+].[K+].[O]=[Cr](=[O])([O-])[O][Cr](=[O])(=[O])[O-]` [Compound K2Cr2O7, K2Cr2O7], the concentration for 50% growth inhibition (GI50) in series [1] (data not detailed in the manuscript, parasite stage not stated, read-out: GI50 against K2Cr2O7, LTB0016) was 1060 µM; in series [5] (data not detailed in the manuscript, parasite stage not stated, read-out: GI50 against K2Cr2O7, VE98MR), above 2500 µM; in series [3] (data not detailed in the manuscript, parasite stage not stated, read-out: GI50 against K2Cr2O7, VE2000MM), above 2500 µM.
Regarding `CC(C)[C@@H]1NC(=O)[C@H](C)OC(=O)[C@@H](C(C)C)NC(=O)[C@@H](C(C)C)OC(=O)[C@H](C(C)C)NC(=O)[C@H](C)OC(=O)[C@@H](C(C)C)NC(=O)[C@@H](C(C)C)OC(=O)[C@H](C(C)C)NC(=O)[C@H](C)OC(=O)[C@@H](C(C)C)NC(=O)[C@@H](C(C)C)OC1=O` [valinomycin, reference compound], the “Effect on plasma membrane potential (ΔΨp), VE2000MM” value in series [7] is “not sensitive”.
As to `C=C(C)[C@@H]1CC[C@]2(C(=O)O)CC[C@]3(C)[C@H](CC[C@@H]4[C@@]5(C)CC[C@H](O)C(C)(C)[C@@H]5CC[C@]43C)[C@@H]12` [Compound 13], in series [1], the growth inhibition entry is listed as “did not show enough anti-leishmanial activity”.
